The target in this assay is SARM1 (Homo sapiens (Human), UniProt Q6SZW1). The assay can be described thus: ARM-SAM-TIR SARM1 IC50 assay (NADase activity, RapidFire mass spectrometry). To be noted: ARM-SAM-TIR lysate 5 µg/mL, 2 h pre-incubation with compound, 5 µM NAD+, 2 hr at room temperature. It counts as biochemical. The text has this:
This Example describes an assay of ARM-SAM-TIR NADase activity and use of this assay to measure the efficacy of compounds of Formula I/II to block SARM1 mediated NAD+ cleavage. This assay was optimized in such a way as to characterize the efficacy of the compounds in Formula I/IIto inhibit SARM1 activity and to calculate an IC50 value for each compound. This assay makes use of […], which encompasses the ARM, SAM and TIR domains. […] The next day, the cells were transfected with 15 μg ARM-SAM-TIR expression plasmid, SEQ ID NO: 1. The cultures were supplemented with 1 mM NR at time of transfection to minimize toxicity from ARM-SAM-TIR overexpression. Forty-eight hours after transfection, cells were harvested, pelleted by centrifugation at 1,000 rpm (Sorvall ST 16R centrifuge, Thermo Fisher), and washed once with cold PBS (0.01 M phosphate buffered saline NaCl 0.138 M; KCl 0.0027 M; pH 7.4). The cells were resuspended in PBS with protease inhibitors (cOmpleteTM protease inhibitor cocktail, Roche product # 11873580001) and cell lysates were prepared by sonication (Branson Sonifer 450, output = 3, 20 episodes of stroke). The lysates were centrifuged (12,000×g for 10 min at 4° C.) to remove cell debris and the supernatants (containing ARM-SAM-TIR protein) were stored at -80° C. for later use in the in vitro ARM-SAM-TIR NADase assay (see below). Protein concentration was determined by the Bicinchoninic (BCA) method and used to normalize lysate concentrations. The enzymatic assay was performed in a 384-well polypropylene plate in Dulbecco's PBS buffer in a final assay volume of 20 μL. […] The reaction was initiated by addition of 5 μM final assay concentration of NAD+ as substrate. After a 2 hr room temperature incubation, the reaction was terminated with 40 μL of stop solution of 7.5% trichloroactetic acid in acetonitrile. The NAD+ and ADPR concentrations were analyzed by a RapidFire High Throughput Mass Spectrometry System (Agilent Technologies, Santa Clara, CA) using an API4000 triple quadrupole mass spectrometer (AB Sciex Framingham, MA).

Chain of SARM1 (Q6SZW1 other isoform, or with tags, fused parts or gaps): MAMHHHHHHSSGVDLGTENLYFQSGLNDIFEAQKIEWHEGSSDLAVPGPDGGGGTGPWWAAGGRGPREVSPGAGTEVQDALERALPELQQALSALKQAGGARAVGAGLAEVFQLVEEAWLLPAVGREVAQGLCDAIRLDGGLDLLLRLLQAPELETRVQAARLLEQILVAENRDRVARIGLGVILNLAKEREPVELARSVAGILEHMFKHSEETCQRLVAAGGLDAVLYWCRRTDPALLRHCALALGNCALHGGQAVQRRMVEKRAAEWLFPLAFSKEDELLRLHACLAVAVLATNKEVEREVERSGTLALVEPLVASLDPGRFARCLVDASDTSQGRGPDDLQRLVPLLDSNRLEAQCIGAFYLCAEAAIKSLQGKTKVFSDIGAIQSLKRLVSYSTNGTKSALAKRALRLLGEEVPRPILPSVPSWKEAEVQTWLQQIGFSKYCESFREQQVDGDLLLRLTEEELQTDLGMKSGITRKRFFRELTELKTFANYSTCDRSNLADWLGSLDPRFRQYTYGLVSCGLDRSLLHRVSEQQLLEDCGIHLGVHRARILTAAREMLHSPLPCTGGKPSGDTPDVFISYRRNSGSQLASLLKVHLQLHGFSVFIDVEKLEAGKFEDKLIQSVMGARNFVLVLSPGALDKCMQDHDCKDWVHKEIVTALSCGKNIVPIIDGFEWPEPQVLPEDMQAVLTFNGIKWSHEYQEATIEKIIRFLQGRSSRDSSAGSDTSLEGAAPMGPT

Take `C[C@H](NC(=O)c1cccc2c(-c3ccncc3)n[nH]c12)c1ccc(Cl)cc1` [Example 8]: the IC50 is more than 10000 nM. As to `O=C(NCc1ccccc1)c1cccc2c(-c3ccncc3)n[nH]c12` [Example 2], the IC50 fell in the range of 100 to 1000 nM. The result for `O=C(NCc1ccc(Cl)cc1)c1cccc2c(-c3ccncc3)n[nH]c12` [Example 1] reads less than 100 nM; that for `O=C(NCc1ccccc1)c1cncc2c(-c3ccncc3)n[nH]c12` [Example 6], 100 to 1000 nM; that for `O=C(NCc1ccc(Cl)cc1)c1cccc2c(-c3ccncc3F)n[nH]c12` [Example 10], less than 100 nM. The result for `O=C(NCc1ccc(Cl)s1)c1cccc2c(-c3ccncc3F)n[nH]c12` [Example 13] reads 100 to 1000 nM; that for `O=C(NCc1ccccc1)c1ccnc2c(-c3ccncc3)n[nH]c12` [Example 7], 1010 to 5000 nM.

On to `O=C(NCc1ccc(Cl)cc1)c1ccnc2c(-c3ccncc3)n[nH]c12` [Example 5], for which the IC50 was less than 100 nM. To `O=C(NCc1ccc(Cl)c(F)c1)c1cccc2c(-c3ccncc3F)n[nH]c12` [Example 12] belongs less than 100 nM; to `O=C(NCc1ccc(Cl)cc1)c1cncc2c(-c3ccncc3)n[nH]c12` [Example 4], less than 100 nM; to `O=C(NCc1ccc(Cl)nc1)c1cccc2c(-c3ccncc3)n[nH]c12` [Example 9], 100 to 1000 nM.

A word on the IC50: it is the concentration needed to halve the response being measured.

These data come from patent publication US20230286978A1, “INDAZOLE DERIVATIVES AS INHIBITORS OF SARM1” (Disarm Therapeutics, Inc., priority 2020, published 2023).
